This assay deals with T1, ABCG2 (Homo sapiens, UniProt Q9UNQ0).
T1 sequence (Q9UNQ0 1-655): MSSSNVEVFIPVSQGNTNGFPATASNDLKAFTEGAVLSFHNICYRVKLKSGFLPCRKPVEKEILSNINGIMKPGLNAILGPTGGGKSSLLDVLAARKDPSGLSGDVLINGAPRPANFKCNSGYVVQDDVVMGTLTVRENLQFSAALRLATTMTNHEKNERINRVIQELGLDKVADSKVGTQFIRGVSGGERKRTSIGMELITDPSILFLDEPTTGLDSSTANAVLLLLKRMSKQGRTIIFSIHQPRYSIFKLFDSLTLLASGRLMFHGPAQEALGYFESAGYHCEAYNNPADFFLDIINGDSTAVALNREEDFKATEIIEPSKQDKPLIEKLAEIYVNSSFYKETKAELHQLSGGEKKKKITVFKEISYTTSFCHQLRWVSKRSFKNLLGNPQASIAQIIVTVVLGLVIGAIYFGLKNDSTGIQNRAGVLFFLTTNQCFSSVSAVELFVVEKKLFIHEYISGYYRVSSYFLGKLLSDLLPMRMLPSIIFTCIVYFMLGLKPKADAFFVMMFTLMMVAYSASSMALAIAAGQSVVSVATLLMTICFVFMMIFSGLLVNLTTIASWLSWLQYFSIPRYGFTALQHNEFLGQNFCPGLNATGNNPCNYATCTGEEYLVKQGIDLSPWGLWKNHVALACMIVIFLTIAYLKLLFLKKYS
Kind of assay: Hoechst […] accumulation assay in ABCG2-transfected MDCK II BCRP cells. The format is cell-based.

Take `O=C1NC(=O)c2c1c1c3ccccc3[nH]c1c1[nH]c3ccccc3c21` [compound 8, arcyriaflavin A]: 9 µM corresponded to half-maximal inhibition (IC50).

(Values after article PMC7497240 (Chembiochem, 2020).)
